Laboratory results reported in patent publication US20220251091A1, “AMORPHOUS UMBRALISIB MONOTOSYLATE” (Johnson Matthey Public Limited Company, priority 2019, published 2022).

Key:
[1] = XRPD of the sample after DVS; type: physicochemical
Procedure: (§1) XRPD patterns are obtained using a Bruker D8 Advance equipped with a Cu Kα radiation source (λ=1.54 Å), a 9-position sample holder and a LYNXEYE super speed detector. Samples are placed on zero-background, silicon plate holders for analysis. One skilled in the art would recognize that the ° 20 values and the relative intensity values are generated by performing a peak search on the measured data and the d-spacing values are calculated by the instrument from the ° 20 values using Bragg's equation. One skilled in the art would further recognize that the relative intensity for the measured peaks may vary as a result of sample preparation, orientation and instrument used, for example.
(§2) DVS samples (5-10 mg) are analyzed using a TA Instruments Q5000 SA powerful dynamic vapor sorption analyzer. The relative humidity is started at about 50% and adjusted to between about 0-90% humidity with about a 10% increase or decrease in humidity for each step for 3 cycles. The weight of the sample is continuously monitored and recorded.

[2] = Dynamic vapor sorption (DVS); type: physicochemical; conditions: for hygroscopicity by DVS: 3 cycles
Procedure: as §2

[3] = XRPD after storage at about 40° C. under vacuum for about two weeks; type: physicochemical
Procedure: as §1

PI3K-delta = biological target: T1, PI3K-delta (Homo sapiens, UniProt O00329); conditions: Phase 2 trial, relapsed/refractory marginal zone lymphoma; cited from earlier work
T1 construct: host or cells: patients (clinical trial)
T1 sequence (O00329 whole entry): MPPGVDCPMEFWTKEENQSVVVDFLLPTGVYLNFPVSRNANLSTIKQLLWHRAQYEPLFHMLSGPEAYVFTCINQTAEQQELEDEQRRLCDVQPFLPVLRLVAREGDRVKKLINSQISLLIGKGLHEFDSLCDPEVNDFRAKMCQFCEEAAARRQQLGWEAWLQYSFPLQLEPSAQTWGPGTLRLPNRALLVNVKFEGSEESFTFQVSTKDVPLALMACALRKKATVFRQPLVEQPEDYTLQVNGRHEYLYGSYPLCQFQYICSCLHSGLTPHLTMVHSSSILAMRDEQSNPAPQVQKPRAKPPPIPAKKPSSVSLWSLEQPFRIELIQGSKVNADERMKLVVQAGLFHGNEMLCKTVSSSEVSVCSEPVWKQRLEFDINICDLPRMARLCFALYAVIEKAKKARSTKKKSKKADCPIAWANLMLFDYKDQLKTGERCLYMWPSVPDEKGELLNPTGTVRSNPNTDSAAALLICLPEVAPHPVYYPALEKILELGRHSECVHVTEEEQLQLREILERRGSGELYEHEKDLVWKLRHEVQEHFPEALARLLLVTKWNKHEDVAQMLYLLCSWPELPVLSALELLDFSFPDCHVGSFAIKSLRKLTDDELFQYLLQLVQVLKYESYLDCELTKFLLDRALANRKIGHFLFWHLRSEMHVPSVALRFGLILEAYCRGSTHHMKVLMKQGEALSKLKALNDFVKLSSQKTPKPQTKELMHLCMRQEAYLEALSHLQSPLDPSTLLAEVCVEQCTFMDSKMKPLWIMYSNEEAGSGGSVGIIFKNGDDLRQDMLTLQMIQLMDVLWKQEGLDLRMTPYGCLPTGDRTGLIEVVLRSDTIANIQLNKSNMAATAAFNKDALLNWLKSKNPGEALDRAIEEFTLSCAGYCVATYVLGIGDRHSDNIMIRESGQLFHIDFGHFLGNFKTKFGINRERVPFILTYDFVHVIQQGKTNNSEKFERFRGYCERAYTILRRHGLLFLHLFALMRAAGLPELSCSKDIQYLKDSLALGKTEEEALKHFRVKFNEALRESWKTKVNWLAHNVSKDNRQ
T1 sequence (P27986 whole entry partner): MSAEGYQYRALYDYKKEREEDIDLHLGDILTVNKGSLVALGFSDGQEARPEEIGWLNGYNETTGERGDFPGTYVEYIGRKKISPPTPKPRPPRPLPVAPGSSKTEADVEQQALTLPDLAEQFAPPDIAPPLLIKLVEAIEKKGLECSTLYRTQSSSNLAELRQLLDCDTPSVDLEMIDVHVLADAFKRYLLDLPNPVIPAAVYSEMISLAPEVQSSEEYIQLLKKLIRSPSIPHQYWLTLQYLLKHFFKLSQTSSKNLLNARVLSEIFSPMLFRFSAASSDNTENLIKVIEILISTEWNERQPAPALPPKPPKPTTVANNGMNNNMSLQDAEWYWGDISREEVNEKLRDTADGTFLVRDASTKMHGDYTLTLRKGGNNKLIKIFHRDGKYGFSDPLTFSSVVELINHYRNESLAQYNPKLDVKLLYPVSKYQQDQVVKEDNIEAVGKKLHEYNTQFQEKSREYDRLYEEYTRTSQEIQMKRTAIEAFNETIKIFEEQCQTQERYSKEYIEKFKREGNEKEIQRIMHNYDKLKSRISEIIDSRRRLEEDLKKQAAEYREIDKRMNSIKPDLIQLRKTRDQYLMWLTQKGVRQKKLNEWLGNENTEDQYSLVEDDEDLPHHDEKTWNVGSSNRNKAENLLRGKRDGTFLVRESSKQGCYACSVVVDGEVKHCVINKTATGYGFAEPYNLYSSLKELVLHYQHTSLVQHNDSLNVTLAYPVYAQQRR

Row | SMILES | solid form by XRPD after DVS [1] | hygroscopicity by DVS [2] | weight change between about 0-90% relative humidity [2] [%] | weight change in the sample over three cycles [2] [%] | solid form by XRPD after storage [3] | PI3K-delta inhibition in patients (PI3K-delta) | tolerability in patients (PI3K-delta)
1 | CC(C)Oc1ccc(-c2nn([C@@H](C)c3oc4ccc(F)cc4c(=O)c3-c3cccc(F)c3)c3ncnc(N)c23)cc1F [Example 1, amorphous umbralisib monotosylate] | still amorphous | hygroscopic | ~4 | < 1 | – | – | –
2 | CC(C)Oc1ccc(-c2nn([C@@H](C)c3oc4ccc(F)cc4c(=O)c3-c3cccc(F)c3)c3ncnc(N)c23)cc1F [Example 2, amorphous umbralisib monotosylate] | still amorphous | hygroscopic | ~4 | ~0.5 | still amorphous | – | –
3 | CC(C)Oc1ccc(-c2nn([C@@H](C)c3oc4ccc(F)cc4c(=O)c3-c3cccc(F)c3)c3ncnc(N)c23)cc1F [umbralisib, (S)-2-(1-(4-amino-3-(3-fluoro-4-isopropoxyphenyl)-1H-pyrazolo[3,4-d]pyrimidin-1-yl)ethyl)-6-fluoro-3-(3-fluorophenyl)-4H-chromen-4-one] | – | – | – | – | – | effective PI3K-delta inhibition | well-tolerated
